In ChEMBL document CHEMBL1201862, “PubChem BioAssay data set” (2004):
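Cultured in 96-well plates, cells were exposed to test compound for 48 hours across five concentrations. The concentration for 50% growth inhibition is given as GI50.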 Calls of active or inactive are those of the source. Cut-off read from the data, not from the text of the source: active = GI50 up to about 1.1 µM and inactive = higher. Residues, ends and D or L forms follow the SMILES beside them. *: point of attachment. X38 = O=C(c1ccc(-c2ccc(Cl)cc2Cl)o1)*

Legend:
Experiment in all cases: NCI-60 cell line screen, 48 h
A549 = tested on: A549
ACHN = tested on: ACHN
DU-145 = tested on: DU-145
HCC 2998 = tested on: HCC 2998
HCT-15 = tested on: HCT-15
HOP-92 = tested on: HOP-92
K562 = tested on: K562
KM12 = tested on: KM12
MCF7 = tested on: MCF7
NCI-H226 = tested on: NCI-H226
OVCAR-4 = tested on: OVCAR-4
OVCAR-8 = tested on: OVCAR-8
RPMI-8226 = tested on: RPMI-8226
SF-539 = tested on: SF-539
SK-MEL-5 = tested on: SK-MEL-5
SK-OV-3 = tested on: SK-OV-3
SN12C = tested on: SN12C
T47D = tested on: T47D
UACC-257 = tested on: UACC-257
DMS-273 = tested on: DMS-273

Structure (SMILES) | GI50 (A549) | GI50 (ACHN) | GI50 (DU-145) | GI50 (HCC 2998) | GI50 (HCT-15) | GI50 (HOP-92) | GI50 (K562) | GI50 (KM12) | GI50 (MCF7) | GI50 (NCI-H226) | GI50 (OVCAR-4) | GI50 (OVCAR-8) | GI50 (RPMI-8226) | GI50 (SF-539) | GI50 (SK-MEL-5) | GI50 (SK-OV-3) | GI50 (SN12C) | GI50 (T47D) | GI50 (UACC-257) | GI50 (DMS-273)
CC(C)C(Cl)CC/C(CBr)=C(\Cl)CCl (configuration not stated) | 17.8 µM (inactive) | 16 µM (inactive) | 13.4 µM (inactive) | 13.7 µM (inactive) | 2.89 µM | 2.25 µM (inactive) | 0.723 µM (active) | 3.21 µM (inactive) | 0.646 µM (active) | 6.7 µM (inactive) | 2.27 µM (inactive) | 2 µM (inactive) | 2.27 µM (inactive) | 15.7 µM (inactive) | 2.02 µM (inactive) | 6.1 µM (inactive) | 4.73 µM (inactive) | 1.5 µM (inactive) | 2.79 µM (inactive) | –
COc1cc(-c2cn(S(=O)(=O)c3ccc(C)cc3)c3ccccc23)nc(-c2cn(S(=O)(=O)c3ccc(C)cc3)c3ccccc23)n1 | 0.473 µM (active) | 0.927 µM (active) | 0.625 µM (active) | 0.516 µM (active) | 0.592 µM | 4.98 µM (inactive) | 0.373 µM (active) | 0.438 µM (active) | 0.395 µM (active) | 0.935 µM (active) | 1.99 µM (inactive) | 0.94 µM (active) | 0.375 µM (active) | 0.222 µM (active) | 0.566 µM (active) | 2.25 µM (inactive) | 1.85 µM (inactive) | > 100 µM (inactive) | 52.5 µM (inactive) | –
Cc1nn(C(=O)CC(=O)Nc2ccc(Cl)cc2)c(C)c1/N=N/c1ccccc1C(=O)O | > 100 µM (inactive) | – | – | > 100 µM (inactive) | > 100 µM | – | > 100 µM (inactive) | > 100 µM (inactive) | – | – | > 100 µM (inactive) | > 100 µM (inactive) | > 100 µM (inactive) | > 100 µM (inactive) | > 100 µM (inactive) | > 100 µM (inactive) | > 100 µM (inactive) | – | > 100 µM (inactive) | > 100 µM (inactive)
COc1ccc2c(CCN)c(C(=O)O)[nH]c2c1 | > 100 µM (inactive) | > 100 µM (inactive) | > 100 µM (inactive) | > 100 µM (inactive) | > 100 µM | > 100 µM (inactive) | > 24.5 µM (inactive) | > 100 µM (inactive) | > 100 µM (inactive) | > 100 µM (inactive) | > 100 µM (inactive) | > 100 µM (inactive) | > 100 µM (inactive) | > 100 µM (inactive) | > 100 µM (inactive) | > 100 µM (inactive) | > 100 µM (inactive) | > 100 µM (inactive) | > 100 µM (inactive) | –
Cc1ccc(/C=C2\Sc3scc(-c4ccccc4)[n+]3C2=O)cc1 | 25.1 µM (inactive) | 20.7 µM (inactive) | 24.7 µM (inactive) | 27.7 µM (inactive) | 19.8 µM | 15.4 µM (inactive) | 12.3 µM (inactive) | 18.5 µM (inactive) | 37.5 µM (inactive) | 37.3 µM (inactive) | 29 µM (inactive) | 22.4 µM (inactive) | 8.28 µM (inactive) | 22.3 µM (inactive) | 21.6 µM (inactive) | 44.2 µM (inactive) | 21.4 µM (inactive) | 48.3 µM (inactive) | 22.8 µM (inactive) | –
C=C1CC(Cn2cc(Br)c(=O)[nH]c2=O)(c2ccc(-c3ccccc3)cc2)OC1=O (configuration not stated) | 5.31 µM (inactive) | 1.83 µM (inactive) | 1.66 µM (inactive) | 1.66 µM (inactive) | 1.61 µM | 0.0308 µM (active) | 0.2 µM (active) | 1.52 µM (inactive) | 0.427 µM (active) | 1.83 µM (inactive) | 2.13 µM (inactive) | 0.466 µM (active) | 0.128 µM (active) | 1.37 µM (inactive) | 1.27 µM (inactive) | 4.31 µM (inactive) | 1.9 µM (inactive) | 2 µM (inactive) | 0.836 µM (active) | –
COC(=O)C(CC(C)C)NC(=O)C(Cc1ccccc1)NC(=O)C1CCCN1C(=O)C(CO)NC(=O)c1ccc(-c2ccc(Cl)cc2Cl)o1 (configuration not stated) (X38-SPFL-OMe; configuration not given here) | 26.1 µM (inactive) | 26.5 µM (inactive) | 38 µM (inactive) | 13.2 µM (inactive) | 24 µM | 21.2 µM (inactive) | 27.8 µM (inactive) | 34 µM (inactive) | 27.5 µM (inactive) | 19.1 µM (inactive) | 31.2 µM (inactive) | 36.4 µM (inactive) | 17.1 µM (inactive) | 24.3 µM (inactive) | 17.3 µM (inactive) | 1.11 µM (active) | 32.1 µM (inactive) | 28.9 µM (inactive) | 20.2 µM (inactive) | –
CC(=O)[C@H]1CC[C@H]2[C@@H]3CCC4=CC(=O)CC[C@]4(C)[C@H]3CC[C@]12C [PROGESTERONE] | 25.3 µM (inactive) | 26 µM (inactive) | 28.1 µM (inactive) | 16.9 µM (inactive) | 18.9 µM | 25.7 µM (inactive) | 10.6 µM (inactive) | 16.7 µM (inactive) | 21.7 µM (inactive) | 11.7 µM (inactive) | 18.7 µM (inactive) | 18.4 µM (inactive) | 3.24 µM (inactive) | 17.6 µM (inactive) | 12.1 µM (inactive) | 20.4 µM (inactive) | 18.6 µM (inactive) | 20.1 µM (inactive) | 12.9 µM (inactive) | –
